{
  "source": "patent US5602125A",
  "about": "“Thienodiazepine derivatives as cholecystokinin and gastrin antagonists” (Merck, Sharp & Dohme, Ltd., priority 1992, dated 1997)",
  "key": {"[1]": {"biological_target": "T1, CCK-A (Rattus norvegicus, UniProt P30551)", "T1 construct": "^125 I-CCK from rat pancreas (CCK-A); from tissue; host or cells: rat pancreas", "T1 sequence (P30551 1-444)": "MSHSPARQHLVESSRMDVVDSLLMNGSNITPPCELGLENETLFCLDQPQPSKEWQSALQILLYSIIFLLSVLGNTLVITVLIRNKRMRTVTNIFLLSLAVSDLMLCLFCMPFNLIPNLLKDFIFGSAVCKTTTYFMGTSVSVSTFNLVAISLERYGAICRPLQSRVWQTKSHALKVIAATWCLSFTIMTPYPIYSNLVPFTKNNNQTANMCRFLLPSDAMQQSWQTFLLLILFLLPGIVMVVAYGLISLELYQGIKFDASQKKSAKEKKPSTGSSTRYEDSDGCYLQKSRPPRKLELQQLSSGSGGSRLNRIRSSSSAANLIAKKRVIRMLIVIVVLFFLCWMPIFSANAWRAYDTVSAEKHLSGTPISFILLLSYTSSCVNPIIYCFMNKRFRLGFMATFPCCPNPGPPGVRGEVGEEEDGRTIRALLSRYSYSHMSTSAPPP", "assay": "displacement of 125I-CCK from rat pancreas (CCK-A)", "conditions": "50% displacement of specific 125I-CCK, read-out: CCK receptor binding IC50, 125I-CCK Pancreas", "experimental": "(§1) The CCK-A and CCK-B antagonising activity of the compounds described herein was evaluated using the assays described in published European patent application no. 0514133. The method essentially involves determining the concentration of the test compound required to displace 50% of the specific ^125 I-CCK from rat pancreas (CCK-A) or guinea pig brain (CCK-B). The data in Table 1 were obtained for the compound of Example 1."}, "[2]": {"biological_target": "T2, CCK-B (Cavia porcellus, UniProt H0VZC5)", "T2 construct": "guinea pig brain (CCK-B); from tissue; host or cells: guinea pig brain", "T2 sequence (H0VZC5 entry or part of it)": "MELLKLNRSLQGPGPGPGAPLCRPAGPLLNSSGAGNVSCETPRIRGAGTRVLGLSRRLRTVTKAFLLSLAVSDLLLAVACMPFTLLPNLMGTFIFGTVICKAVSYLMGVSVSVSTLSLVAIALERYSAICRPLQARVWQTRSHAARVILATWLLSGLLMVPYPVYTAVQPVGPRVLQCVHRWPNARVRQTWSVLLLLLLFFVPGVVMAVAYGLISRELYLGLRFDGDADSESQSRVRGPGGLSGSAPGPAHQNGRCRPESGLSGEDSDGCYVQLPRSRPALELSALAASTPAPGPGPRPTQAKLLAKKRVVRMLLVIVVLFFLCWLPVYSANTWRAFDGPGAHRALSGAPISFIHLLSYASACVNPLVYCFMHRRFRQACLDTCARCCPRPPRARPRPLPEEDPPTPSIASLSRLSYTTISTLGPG", "assay": "displacement of 125I-CCK from guinea pig brain (CCK-B)", "type": "binding", "experimental": "as §1"}},
  "data": [
    {"smiles": "Cc1cccc(NC(=O)NC2N=C(C3CCCCC3)c3ccsc3N(C)C2=O)c1", "note": "(racemic) [Example 1, N-[3(R,S)-5-cyclohexyl-2,3-dihydro-1-methyl-2-oxo-1H-1,4-thienodiazepine-3-yl]-N'-(3-methylphenyl) urea]", "values": [
      {"measurement": "IC50", "setting": "[1]", "result": 6.7, "unit": "nM"},
      {"measurement": "IC50", "setting": "[2]", "result": 46, "unit": "nM"}
    ]}
  ]
}
